Results on 13 compounds are retold here after patent publication US9000022B2 (Exelixis Patent Company LLC, priority 2005, dated 2015).

SMILES strings stand for the structures.

The test system of this test is LXRα and/or LXRβ. The experiment in a line: Co-transfection assay (LXRE luciferase reporter, CV-1 cells). The format is cell-based, human. Particulars: tested as described in Example 33; IC50 or EC50 for LXRα and/or LXRβ, isoform not specified; read-out: activity (IC50 or EC50 for LXR). Put shortly:
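Luciferase signal measures LXR-RXR transcriptional activation in transiently transfected CV-1 cells carrying human LXRα or LXRβ, RXRα and a single-copy LXRE reporter. Cells were exposed to compound for 20 h at 37 °C with at most 1% DMSO, using 10 μM final for screening. Potency was derived from 4-parameter fits of 8-point, half-log dose curves averaged over ≥3 runs, and efficacy was expressed as % of a reference agonist.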
(In general: Reporter assays use an easily measured gene product as a stand-in for the process of interest.)

For `NS(=O)(=O)c1cccc(-c2ccc(-n3cc(C(F)(F)F)nc3-c3ccccc3Cl)cc2)c1` [Example 360, 4′-[2-(2-chlorophenyl)-4-(trifluoro-methyl)-1H-imidazol-1-yl]biphenyl-3-sulfonamide], the IC50 or EC50 (potency, activation or inhibition) is less than 1000 nM.

As to `NS(=O)(=O)c1cccc(-c2ccc(-c3[nH]c(C(F)(F)F)nc3-c3ccccc3Cl)cc2)c1` [Example 361, 4′-[4-(2-chlorophenyl)-2-(trifluoro-methyl)-1H-imidazol-5-yl]biphenyl-3-sulfonamide], the IC50 or EC50 (potency, activation or inhibition) was in the range of 1000 to 10000 nM.

On to `NS(=O)(=O)c1cccc(-c2ccc(-c3[nH]c(C(F)(F)F)nc3-c3ccccc3Cl)s2)c1` [Example 362, 3-{5-[4-(2-chlorophenyl)-2-(trifluoro-methyl)-1H-imidazol-5-yl]-2-thienyl}benzenesulfonamide], for which the IC50 or EC50 (potency, activation or inhibition) is less than 1000 nM.

In the case of `FC(F)(F)c1cn(-c2ccc(Br)cc2)c(-c2ccccc2C(F)(F)F)n1` [Example 363, 1-(4-bromophenyl)-4-(trifluoromethyl)-2-[2-(trifluoromethyl)phenyl]-1H-imidazole], the IC50 or EC50 (potency, activation or inhibition) lay in the range of 1000 to 10000 nM.

Consider `CS(=O)(=O)c1cccc(-c2ccc(-n3cc(C(F)(F)F)nc3-c3ccccc3C(F)(F)F)cc2)c1` [Example 364, 1-[3′-(methylsulfonyl)biphenyl-4-yl]-4-(trifluoromethyl)-2-[2-(trifluoro-methyl)phenyl]-1H-imidazole], for which the IC50 or EC50 (potency, activation or inhibition) is less than 1000 nM.

Regarding `NS(=O)(=O)c1cccc(-c2ccc(-n3cc(C(F)(F)F)nc3-c3ccccc3C(F)(F)F)cc2)c1` [Example 365, 4′-{4-(trifluoromethyl)-2-[2-(trifluoromethyl)phenyl]-1H-imidazol-1-yl}biphenyl-3-sulfonamide], the IC50 or EC50 (potency, activation or inhibition) is less than 1000 nM.

Take `CCOC(=O)c1cn(-c2ccc(Br)cc2)c(-c2ccccc2C(F)(F)F)n1` [Example 366, ethyl 1-(4-bromophenyl)-2-[2-(trifluoromethyl)phenyl]-1H-imidazole-4-carboxylate]: the IC50 or EC50 (potency, activation or inhibition) fell in the range of 1000 to 10000 nM.

On to `CCOC(=O)c1cn(-c2ccc(-c3cccc(S(C)(=O)=O)c3)cc2)c(-c2ccccc2C(F)(F)F)n1` [Example 367], for which the IC50 or EC50 (potency, activation or inhibition) was less than 1000 nM.

Turning to `FC(F)(F)c1cn(-c2ccc(Br)cn2)c(-c2ccccc2C(F)(F)F)n1` [Example 368, 5-bromo-2-{4-(trifluoromethyl)-2-[2-(trifluoro-methyl)phenyl]-1H-imidazol-1-yl}pyridine], the IC50 or EC50 (potency, activation or inhibition) fell in the range of 1000 to 10000 nM.

For the compound `CS(=O)(=O)c1cccc(-c2ccc(-n3cc(C(F)(F)F)nc3-c3ccccc3C(F)(F)F)nc2)c1` [Example 369, 5-[3-(methylsulfonyl)phenyl]-2-{4-(trifluoromethyl)-2-[2-(trifluoro-methyl)phenyl]-1H-imidazol-1-yl}pyridine], the IC50 or EC50 (potency, activation or inhibition) is less than 1000 nM.

`CS(=O)(=O)c1cccc(-c2ccc(-n3cc(C(F)(F)F)nc3-c3ccccc3Cl)nc2)c1` [Example 370, 2-[2-(2-chlorophenyl)-4-(trifluoro-methyl)-1H-imidazol-1-yl]-5-[3-(methylsulfonyl)phenyl]pyridine]: the IC50 or EC50 (potency, activation or inhibition) was less than 1000 nM.

Consider `CC(C)S(=O)(=O)c1cccc(-c2ccc(-n3cc(C(F)(F)F)nc3-c3ccccc3C(F)(F)F)nc2)c1` [Example 372, 5-{3-[(1-methylethyl)sulfonyl]phenyl}-2-{4-(trifluoromethyl)-2-[2-(trifluoro-methyl)phenyl]-1H-imidazol-1-yl}pyridine], for which the IC50 or EC50 (potency, activation or inhibition) was less than 1000 nM.

Consider `CC(C)S(=O)(=O)c1cccc(-c2ccc(-n3cc(C(F)(F)F)nc3-c3ccccc3C(F)(F)F)cc2)c1` [Example 373, 1-{3′-[(1-methylethyl)sulfonyl]biphenyl-4-yl}-4-(trifluoromethyl)-2-[2-(trifluoromethyl)phenyl]-1H-imidazole], for which the IC50 or EC50 (potency, activation or inhibition) was less than 1000 nM.
